This is an account of results in PMC5613068, “Resolving distinct molecular origins for copper effects on PAI-1” (Journal of Biological Inorganic Chemistry, 2017).

pKd: −log10 of the molar value. Where two headings read alike, the source gives them in different places.

The target of experiment [1] is PAI-1. Details: method as in PMID 21280128. To be noted: read-out: K d of copper binding to PAI-1; cited from earlier work.
Experiment [2] has as its target vitronectin (Homo sapiens) (UniProt P04004). To be noted: cited from earlier work.
For experiment [3], the target named is vitronectin SMB domain (Homo sapiens) (UniProt P04004). To be noted: cited from earlier work.
Sequence of vitronectin SMB domain (Homo sapiens) (P04004 17-66): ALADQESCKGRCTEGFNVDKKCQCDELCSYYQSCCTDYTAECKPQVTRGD
Experiment [4] has as its target PAI-1. Details: method as in PMID 12067733, PMID 10764685. The conditions noted are these: read-out: K d of VN binding to PAI-1; cited from earlier work.
Experiment [5] can be described thus: Metal ion titration gel assay (copper sensitivity of PAI-1 latency, PAI-1/tPA complex densitometry). To be noted: 4 µM PAI-1, 30 min, 37 °C, 50 mM MOPS, 100 mM (NH4)2SO4 pH 7.4, total Cu(II) 5-1000 µM, non-equilibrium. It counts as biochemical. The protocol: To determine the Cu(II) concentrations required to induce accelerated PAI-1 latency, we used a gel-based metal ion titration assay. Serial dilutions of CuSO4 were prepared, resulting in final Cu(II) concentrations ranging from 5 to 1000 μM. […] Incubation with metal was initiated by adding PAI-1 at a final concentration of 4 μM and maintaining the mixture at 37 °C in 50 mM MOPS, 100 mM (NH4)2SO4 pH 7.4 for 30 min. After the 30-min incubation, PAI-1 was mixed in a 1:1 ratio with single-chain tPA (Molecular Innovations). Three control samples (PAI-1, tPA, and PAI-1/tPA) were also tested in which copper is not included. Non-reducing SDS-PAGE dye was added to each sample, followed by boiling for 10 min prior to loading on the gel. The free/latent PAI-1, free tPA, and PAI-1/tPA complex in each sample were separated and visualized by SDS-PAGE electrophoresis in a 4–12% gradient gel (Invitrogen). Samples were subjected to electrophoresis at 150 V for 75 min. SDS-PAGE gels were stained with Coomassie blue dye overnight, followed by three destaining steps of 90 min in deionized water containing 30% methanol and 7.5% glacial acetic acid. Gel pictures were captured using a ChemiDoc XRS molecular imager (Biorad), and gel band densitometry of the PAI-1/tPA complex bands was performed using Imagelab (Biorad). […]

Experiment [6] deals with tPA (Homo sapiens, UniProt P00750). The experiment can be described thus: PAI-1 activity measurement (inhibition of tPA at varying molar ratios). The conditions noted are these: purified active protein. The class given is biochemical. The protocol:
The activity of wild-type and variant forms of PAI-1 was measured using standard assays. PAI-1 was mixed with tPA at varying molar ratios ranging from 0.25 to 4 (PAI-1:tPA). The inhibitory capacity of PAI-1 was measured in a gel-based assay, wherein the PAI-1/tPA complex at each molar ratio was monitored and quantified by densitometry. PAI-1 inhibition of proteases was also measured in a kinetic assay in which the tPA-substrate (Spectrozyme tPA, Sekisui Diagnostics) was added to the mixture containing PAI-1 and tPA. Cleavage of the p-nitroanaline group of Spectrozyme tPA was detected by absorbance at 405 nm, allowing for the measurement of tPA activity over time at each molar ratio of PAI-1:tPA. […] Latent PAI-1 was generated by dilution in buffer (50 mM sodium phosphate, 300 mM NaCl, 1 mM EDTA, pH 6.25) to a 5 μM concentration, and incubation at 37 °C with light stirring for 6 days. The aforementioned activity measurements were performed to confirm that no active PAI-1 remained in the mixture.

A short description of experiment [7]: Isothermal titration calorimetry of Cu(II) binding to PAI-1. To be noted: 10 °C; for pKd / K obs: one-site model; for pKd: K d = 1/K obs. The protocol: Isothermal titration calorimetry (ITC) was used to determine the thermodynamic parameters associated with Cu(II) interactions with PAI-1. Active and latent forms of wild-type and variants of PAI-1 were dialyzed into 100 mM MOPS, 250 mM (NH4)2SO4 at 10 °C for 2 h. Because of the relative instability of the H2AH3A variant of PAI-1, our studies on H2AH3A PAI-1 utilized a variant that contained an additional mutation, W175F. […] Residue 175 is not proximal to the N terminus and is not involved in metal ion coordination or its subsequent effects on PAI-1 stability. Copper solutions were prepared by diluting CuSO4 into the matched dialysate buffer. The copper stock concentration was verified using atomic absorbance spectroscopy, and the pH corrected to 7.4 at 10 °C using NaOH. Twenty micromolar PAI-1 (2.2 mL total volume) and copper solution (4 mL) were degassed under vacuum for 10 min at 5 °C prior to loading into the (Malvern) MicroCal VP-ITC. The PAI-1 solution was loaded into the ITC cell (1.394 mL), and the copper solution was loaded into the ITC syringe. The reference and experimental ITC cells were equilibrated to 10 °C prior to the start of the experiment. After a preliminary injection of 2 µL, each additional injection consisted of a 4 µL injection at 120 or 240 s intervals. Experiments were performed at least in duplicate. Control experiments measuring dilution heats were performed in which the copper solution was injected into buffer. The data were baseline corrected using NITPIC software (University of Texas, Southwestern), and fit to either a single-site or two-site non-symmetric binding model in SEDPHAT (National Institutes of Health). The data and fits were represented using GUSSI software (University of Texas, Southwestern).
A general note: In ITC the heat of successive injections is recorded.

Sequence of PAI-1 (from UniProt P05121) (P05121 24-402): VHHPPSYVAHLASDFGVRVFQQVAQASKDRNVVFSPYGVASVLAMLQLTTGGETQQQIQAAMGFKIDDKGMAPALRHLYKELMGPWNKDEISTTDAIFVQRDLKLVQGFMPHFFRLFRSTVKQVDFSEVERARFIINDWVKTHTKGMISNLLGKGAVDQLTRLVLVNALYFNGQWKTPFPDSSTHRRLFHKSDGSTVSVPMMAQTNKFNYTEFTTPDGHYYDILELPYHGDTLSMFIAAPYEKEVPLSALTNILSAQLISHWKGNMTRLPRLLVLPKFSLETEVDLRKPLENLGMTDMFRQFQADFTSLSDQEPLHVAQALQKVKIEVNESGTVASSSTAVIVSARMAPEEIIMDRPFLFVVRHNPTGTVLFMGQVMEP
Sequence of vitronectin (Homo sapiens) (P04004 399-478): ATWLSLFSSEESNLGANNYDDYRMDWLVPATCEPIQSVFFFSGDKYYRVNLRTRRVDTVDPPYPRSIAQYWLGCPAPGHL
Sequence of tPA (P00750 311-562 limits assumed): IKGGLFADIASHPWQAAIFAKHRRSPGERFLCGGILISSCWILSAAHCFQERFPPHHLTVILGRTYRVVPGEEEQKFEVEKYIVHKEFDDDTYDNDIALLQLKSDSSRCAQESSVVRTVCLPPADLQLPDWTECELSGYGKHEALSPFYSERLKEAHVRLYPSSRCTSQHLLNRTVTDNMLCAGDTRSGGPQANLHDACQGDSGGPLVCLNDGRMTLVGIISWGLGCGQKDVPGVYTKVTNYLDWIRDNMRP

As for `O=S(=O)([O-])[O-].[Cu+2]` [Copper, CuSO4], the pKd in experiment [1] was about 7.05.
Take PAI-1 (from UniProt P05121): the pKd in experiment [2] is 10.00; in experiment [3], 9.00.
For “VN: Vitronectin, glycoprotein that binds and stabilizes active PAI-1”, the pKd in experiment [4] was about 10.00.
As to “plasminogen activator inhibitor-1 [Wild-type]”, the “Copper sensitivity (midpoint Cu(II) concentration at which 50% PAI-1/tPA complex is observed)” value was 150 µM in experiment [5] and “approximately 150 µM” in experiment [5] (listed as wild-type PAI-1). Also, the “molar equivalents of PAI-1 that fully inhibit tPA” value in experiment [6] was determined as 1.25 molar equivalents. Further, the pKd in experiment [7] ([Cu(II)] 650 µM) was 7.89; in experiment [7] ([Cu(II)] 700 µM), 7.72; in experiment [7] ([Cu(II)] 750 µM) it was 7.70; in experiment [7] ([Cu(II)] 800 µM), 7.62. For the same molecule, the figures for the K obs in experiment [7] ([Cu(II)] 750 µM) and in experiment [7] ([Cu(II)] 800 µM) were 4.8 (±5.5) × 10^7 M^−1 and 4.1 (±2.8) × 10^7 M^−1, respectively. Moreover, the “average K obs” value in experiment [7] (single-site model, average of replicate data) was 5.4e+07 M⁻¹.
